Assay results as given in US6465432B1, “Isolated antioxidant peptides form casein and methods for preparing, isolating, and identifying antioxidant peptides” (Kraft Food Holdings, Inc., priority 2000, dated 2002).
No end group written: not given here.

Key:
Type in all cases: biochemical
[1] = Total reducing power assay using ABTS radical; details: for antioxidative activity in the ABTS radical assay: HPLC-isolated fractions of Phase I, concentrations not adjusted after HPLC; for reducing power in terms of scavenging pre-formed ABTS radical: synthesized peptide 0.0832 mM, Trolox 0.0208 mM, n=5
Procedure: (§1) Phase I fractions of the protein hydrolysates generated with various proteases in Example 1 were analyzed for their ability to prevent accumulation of free radicals derived from 2,2′-azino-bis(3-ethylbenzthiazoline-6-sulfonic acid) (ABTS). Both total antioxidative activity and total reducing power of protein hydrolysate using ABTS and preformed ABTS radical, respectively, were used. These two model systems allowed mechanistic information of antioxidative activity of protein hydrolysates to be obtained. Furthermore, the analysis provided specific data related to whether the protein hydrolysates have the capacity of scavenging radicals in an oxidation system.
Total reducing power assays using ABTS radical were performed according to the methods of Pellegrini et al., “Screening of Dietary Carotenoids and Carotenoid-Rich Fruit Extracts for Antioxidant Activities Applying 2,2 ′-Azinobis(3-ethylenebenzothiazoline-6-sulfonic acid Radical Cation Decolorization Assay,” Methods in Enzymology 299:379 (1999). This assay measures antioxidant capability as reducing power in terms of scavenging pre-formed ABTS radical. Equal volumes of lOmM PBS and sample (Phase I hydrolysate fractions as described in Example 1) were combined and 2.5 times the total volume (i.e., PBS and sample combined) of a working solution of ABTS radical was added. The mixture was agitated and absorbance at 734 nm was measured after 10 minutes of incubation at […]. Acetone or PBS was used as a blank where appropriate. The working solution of ABTS radical was prepared by adding 1 volume of a ABTS radical stock solution to 80 volumes of 10 mM PBS (pH 7.0) and adding, if necessary, PBS or ABTS stock solution to adjust the absorbance to about 0.83 at 734 nm. The ABTS radical stock solution contained 2.5 mM K2S2O8 and 6.9 mM ABTS.

[2] = ABTS total antioxidative activity assay (ABTS, metmyoglobin, H2O2; absorbance at 734 nm)
Procedure: as §1
Total antioxidant assays using ABTS were performed according to Cox et al., “Biological assays for cellular transformation,” Methods in Enzymology 238:277 (1994); and Plumb et al., “Are Whole Extracts and Purified Glucosinolates from Cruciferous Vegetables Antioxidants?,” Free Rad. Res. 25:75 (1996). The assay was performed in a total volume of 1.2 ml. Twenty-five microliters of sample (Phase I hydrolysate fractions as described in Example 1 or Trolox standard (2.5 mM) (Aldrich, Milwaukee, Wis.) were combined with 100 μl of ABTS solution (2.5 mM ABTS (Sigma, St. Louis, Mo.) in PBS), 180 μl of MetMb solution (50 μM Metmyoglobin made from mixing 1:1 v/v of 100 µM myoglobin (Sigma, St. Louis, Mo.) and 100 μM Metmyoglobin (Sigma, St. Louis, Mo.); and 100 μM potassium ferricyanide (Aldrich, Milwaukee, Wis.) in PBS), and 775 μl PBS. One-hundred and 20 microliters of 10 mM H2O2 were then added. The mixture was agitated and absorbance was read at 734 nm over a period of 10-15 min.

[3] = Hydroxyl radical (Fenton) assay; details: synthesized peptide 0.2083 mM, Trolox 0.0521 mM; n=5; FIG. 22
Procedure: An analysis was performed to evaluate the ability of the peptide samples (Phase I and II hydrolysate fractions as described in Example 1) to quench the hydroxyl radical. The hydroxyl radical is an exceptionally active agent that reacts nonselectively with all organic constituents of food. Consequently, it can directly initiate lipid oxidation in food systems. The capacity to quench hydroxyl radicals, therefore, should theoretically be a very important characteristics for food antioxidants.
The hydroxyl radical (Fenton) assay was performed according to the methods of Lee, B. J., et al., “Antioxidant effects of L-carnosine on liposomes and beef homogenates,” J. Food Sci. 62:931 (1997). For this assay, 945 μl buffer (0.1 M phosphate buffer, pH 7.4), 60 μl EDTA-FeCl3 solution (92 mM EDTA, 26 mM FeCI3 in 0.1 M phosphate buffer pH 7.4), 25 μl sample (Phase I and II hydrolysate fractions as described in Example 1 or Trolox standard (2.5 mM)), and 120 μl of 1 mM H2O2 were combined. To this solution, 50 μl of a deoxyribose-ascorbic acid solution (67 mM deoxyribose, 4.8 mM ascorbic acid, in 01 M phosphate buffer pH 7.4) was added, and the solution was mixed and incubateded at 37° C. for 1 hr. […] Absorbance of the solution is then read at 532 nm after cooling to room temperature. […]

[4] = synthesized peptide 0.0832 mM, Trolox 0.0208 mM, n=5

Molecule	antioxidative activity in the ABTS radical assay [1]	reducing power in terms of scavenging pre-formed ABTS radical [1]	total antioxidative activity [2, 4]	also measured
Gln-Phe-Tyr [cyclic QFY] (not fully specified (bridges); printed as Gln-Phe-Tyr [cyclic QFY]; also: cyclic, kind not given here) [cyclic tripeptide, fragment of alpha S1-casein (amino acid residues 167-169) from bovine milk]	strong antioxidative activity	significantly (p<0.05) scavenged pre-formed ABTS radical	slightly stronger antioxidative activity	capacity to quench hydroxyl radicals [3]: slightly stronger capacity to quench hydroxyl radicals
YLGYLE [fragment of alpha S1-casein (amino acid residues 106˜111) from bovine milk]	strong antioxidative activity			
LAYFYPE (Bovine) [Leu-Ala-Tyr-Phe-Tyr-Pro-Glu]	strong antioxidative activity			
RYLGYLE (Bovine) [Arg-Tyr-Leu-Gly-Tyr-Leu-Glu, fragment of alpha S1-casein (amino acid residues 105˜111) from bovine milk]	strong antioxidative activity	statistically significant when compared to PBS controls		
Gln-Phe-Tyr [linear QFY]		significantly (p<0.05) scavenged pre-formed ABTS radical	have antioxidative activity	capacity to quench hydroxyl radicals [3]: possess the capacity to quench hydroxyl radicals
Cc1c(C)c2c(c(C)c1O)CCC(C)(C(=O)O)O2 (centres unmarked) [Trolox, reference compound]				total antioxidative activity ([2]; Phase I of milk protein hydrolysates, FIG. 2, PBS negative control, Trolox positive control): typical delay of initiation or lag phase of the oxidation system; time until after which oxidation was virtually totally suppressed ([2]; Trolox 0.0208 mM): > 2 h
AYFYPE [fragment of alpha S1-casein (amino acid residue 158˜163) from bovine milk]	strong antioxidative activity	strong antioxidative activity	significant (p<0.05) when compared to PBS controls	time within which oxidation reached maximal levels ([2]; synthesized peptide 0.0832 mM): ≤ 1.5 h
